From ChEMBL document CHEMBL5579866, “TRPA1 Inhibition Effects by 3-Phenylcoumarin Derivatives” (2024)
The source made the active and inactive calls. No cut-off for these calls is given here.

Key:
[1] = molecular target: Transient receptor potential cation channel subfamily A member 1 (Homo sapiens) (UniProt O75762); test: Antagonist activity at AITC induced human TRPA1 expressed in HEK293 cells assessed as intracellular calcium level at 10 to 100 uM preincubated for 30 mins followed by AITC stimulation and measured for 30 sec by Fluo-3AM staining based assay; format: cell-based; conditions: filed as antagonist, dose 10-100 µM, time 1830.0 sec
Chain of Transient receptor potential cation channel subfamily A member 1 (Homo sapiens) (O75762 whole entry): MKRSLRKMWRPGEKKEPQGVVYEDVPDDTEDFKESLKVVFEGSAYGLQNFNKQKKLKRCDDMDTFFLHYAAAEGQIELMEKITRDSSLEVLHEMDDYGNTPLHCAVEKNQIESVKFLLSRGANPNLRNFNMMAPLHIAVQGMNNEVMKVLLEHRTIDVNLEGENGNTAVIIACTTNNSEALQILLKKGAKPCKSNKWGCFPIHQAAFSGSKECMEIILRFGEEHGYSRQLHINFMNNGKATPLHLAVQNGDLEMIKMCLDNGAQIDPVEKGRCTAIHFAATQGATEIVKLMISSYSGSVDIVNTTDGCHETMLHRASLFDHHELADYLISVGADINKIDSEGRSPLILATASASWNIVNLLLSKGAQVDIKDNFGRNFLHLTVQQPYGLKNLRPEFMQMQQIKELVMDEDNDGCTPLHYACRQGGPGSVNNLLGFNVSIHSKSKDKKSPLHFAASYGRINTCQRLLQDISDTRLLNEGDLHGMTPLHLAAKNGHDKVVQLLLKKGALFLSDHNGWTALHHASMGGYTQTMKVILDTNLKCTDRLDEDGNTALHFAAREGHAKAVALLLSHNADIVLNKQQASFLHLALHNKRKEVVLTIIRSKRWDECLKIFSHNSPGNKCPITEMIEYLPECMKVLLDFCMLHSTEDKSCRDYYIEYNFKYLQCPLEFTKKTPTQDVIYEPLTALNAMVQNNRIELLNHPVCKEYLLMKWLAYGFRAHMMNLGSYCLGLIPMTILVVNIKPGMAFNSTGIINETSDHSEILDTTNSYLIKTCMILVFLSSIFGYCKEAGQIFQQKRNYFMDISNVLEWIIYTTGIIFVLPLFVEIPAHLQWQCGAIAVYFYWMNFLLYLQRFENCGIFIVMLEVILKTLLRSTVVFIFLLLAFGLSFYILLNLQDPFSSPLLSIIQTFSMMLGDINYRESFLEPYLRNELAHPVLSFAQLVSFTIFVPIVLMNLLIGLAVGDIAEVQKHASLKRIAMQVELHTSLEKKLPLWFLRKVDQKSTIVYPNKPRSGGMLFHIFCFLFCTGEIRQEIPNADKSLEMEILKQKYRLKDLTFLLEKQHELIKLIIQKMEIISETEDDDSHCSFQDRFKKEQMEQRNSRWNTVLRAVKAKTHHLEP

T47D [2] = test: Downregulation of TRPA1 protein expression in human T47D cells after 48 hrs; format: functional, cell-based
T47D [3] = test: Inhibition of human T47D spheroid 3D culture growth size at 10 uM incubated for 5 days by CellIQ live-cell analysis; format: functional; conditions: 120 h, time 5 day
T47D [4] = test: Inhibition of human T47D spheroid 3D culture growth size at 1 uM incubated for 120 hrs by CellIQ live-cell analysis; format: functional
T47D [5] = test: Inhibition of human T47D spheroid 3D culture growth size at 10 uM incubated for 120 hrs by CellIQ live-cell analysis; format: functional
T47D [6] = test: Inhibition of human T47D spheroid 3D culture growth size at 10 to 100 uM incubated for 12 hrs by CellIQ live-cell analysis; format: functional, cell-based; conditions: dose 10-100 µM
T47D [7] = test: Inhibition of human T47D spheroid 3D culture growth size at 100 uM incubated for 5 days by CellIQ live-cell analysis; format: functional; conditions: 120 h, time 5 day
[8] = molecular target: Transient receptor potential cation channel subfamily A member 1 (Homo sapiens) (UniProt O75762); test: Agonist activity at human TRPA1; conditions: filed as agonist

Row | Compound | Activity [1] | Activity [8] | Activity (T47D [2]) | also measured
1 | CC(=O)Oc1ccc2cc(-c3ccccc3)c(=O)oc2c1 | Active | – | inactive | –
2 | Oc1ccc(/C=C/c2cc(O)cc(O)c2)cc1 | – | – | Active | –
3 | CC(=O)Oc1ccc2cc(-c3cccc(Br)c3)c(=O)oc2c1 | Active | – | inactive | inhibition at 10 µM (T47D [3]): 8%; inhibition at 1 µM (T47D [4]): 20%; inhibition at 10 µM (T47D [5]): 60%; inhibition (T47D [6]): Active; inhibition at 100 µM (T47D [7]): 18%
4 | O=c1oc2cc(O)ccc2cc1-c1cccc(O)c1 | Active | Active | Active | –

Further lines, with some results ahead:

Row | Activity [1] | Activity [8] | Compound | Activity (T47D [2]) | also measured
5 | – | Active | O=c1oc2ccccc2cc1-c1cccc(O)c1 | Active | –
6 | Active | – | O=c1oc2ccccc2cc1-c1ccc(O)cc1 | – | –
